Laboratory results published in patent publication US20090298781A1, “COMPOUNDS FOR THE INHIBITION OF APOPTOSIS” (CONSEJO SUPERIOR DE, priority 2005, published 2009).
Where “and” joins values, the source holds several entries; their conditions need not be identical. Equal entries are not always repeated.

Tests used:
Format in all cases: cell-based
[1] = system: Caspase activity, U937 cell extracts; experiment: Caspase inhibition assay, U937 cell extracts; settings: for inhibition at 1 µM / inhibition at 5 µM: Homo sapiens, U-937; for inhibition at 5 µM / % Caspase inhibition: 5 μM
Experimental: (§1) The time-dependent inhibition of caspase induced by the compounds described in this invention was analysed. […] Caspase activity was assayed using Saos-2 or U937 cell extracts and Ac-DEVD-afc (N-acetyl-Asp-Glu-Val-Asp-afc(7-amino-4-trifluoromethyl coumarin)) as substrate (20 μM). Caspase activity was continuously monitored by the liberation of fluorescent afc using a Cytofluor 4000 fluorimeter (excitation 400 nm; emission 508 nm) for 1 hour. The effect of the compounds on the caspase activity was expressed as the percentage of inhibition in the fluorescence signal of treated cells vs. the non-treated cells (control).

[2] = system: Caspase activity, Saos-2 cell extracts; experiment: Caspase inhibition assay, Saos-2 cell extracts; settings: for inhibition at 1 µM: Homo sapiens; for % Caspase inhibition: 5 μM
Experimental: as §1

Caspase activity, HeLa = experiment: Caspase inhibition assay, HeLa; settings: for inhibition at 1 µM / inhibition at 5 µM: Homo sapiens; for inhibition at 5 µM / % Caspase inhibition: 5 μM
U937 cell line = experiment: MTT assay, toxicity (cell viability), U937
Experimental: (§2) The MTT assay measures cell proliferation as well as reduction in cell viability when metabolic events lead to apoptosis or necrosis. It can also be used to assess the rate of survival of a given cell line when it is incubated in the presence of xenobiotics. The reduction of tetrazolium salts is accepted as a reliable way to analyse cell proliferation. The yellow tetrazolium MTT (3-(4,5-dimethylthiazolyl-2)-2,5-diphenyltetrazolium bromide) is reduced by metabolically active cells and results in the intracellular formation of purple formazan that can be spectrophotometrically measured after solubilisation with DMSO.
(§3) The MTT assay was used in this invention to assess the toxicity of compounds at different concentrations. To analyse their potential impairment in cell viability, compounds were added to Saos-2 and U937 cell lines at different concentrations and incubated at different times. Results are expressed by percentage cell viability.

Saos-2 cell line = experiment: MTT assay, toxicity (cell viability), Saos-2
Experimental: as §2, §3

Caspase activity, U2-OS = experiment: Caspase inhibition assay, U2-OS; settings: for inhibition at 1 µM / inhibition at 5 µM: Homo sapiens, U2OS; for inhibition at 5 µM / % Caspase inhibition: 5 μM

`NC(=O)CN(CCc1ccc(Cl)cc1Cl)C(=O)C1CC(=O)N(CCc2ccc(Cl)cc2Cl)CC(=O)N1CCC(c1ccccc1)c1ccccc1` (centres unmarked) [I.1, 1-[2-(2,4-Dichlorophenyl)ethyl]-4-(3,3-diphenylpropyl)-3,7-dioxo[1,4]-diazepane-5-carboxylic acid carbamoylmethyl-[2-(2,4-dichlorophenyl)-ethyl]amide] was tested, and the inhibition at 1 µM ([1]; U937, 24 h) was 0%, the inhibition at 5 µM ([1]; U937, 24 h) was 19% and the inhibition at 1 µM ([1]; U937, 48 h) was 14%. It also gave an inhibition at 5 µM ([1]; U937, 48 h) of 19%, an inhibition at 1 µM ([1]; U937, 72 h) of 12% and an inhibition at 5 µM ([1]; U937, 72 h) of 46%. For the same molecule, the inhibition at 1 µM ([2]; Saos-2, 24 h) was 21%, the inhibition at 1 µM ([2]; Saos-2, 48 h) was 17% and the inhibition at 1 µM ([2]; Saos-2, 72 h) was 4%. For the same molecule, the inhibition at 1 µM (Caspase activity, HeLa; 24 h) was 29%, the inhibition at 5 µM (Caspase activity, HeLa; 24 h) was 31% and the inhibition at 1 µM (Caspase activity, HeLa; 48 h) was 75%. It also gave an inhibition at 5 µM (Caspase activity, HeLa; 48 h) of 78%, an inhibition at 1 µM (Caspase activity, HeLa; 72 h) of 34% and an inhibition at 5 µM (Caspase activity, HeLa; 72 h) of 33%. The “% Cell viability” value (U937 cell line; U937, 24 h, 1 μM) was 100%, the “% Cell viability” value (U937 cell line; U937, 24 h, 5 μM) was 98% and 90% and the “% Cell viability” value (U937 cell line; U937, 24 h, 10 μM) was 95% and 87%. For the same molecule, the “% Cell viability” value (U937 cell line; U937, 24 h, 25 μM) was 59%, the “% Cell viability” value (U937 cell line; U937, 24 h, 50 μM) was 27% and the “% Cell viability” value (U937 cell line; U937, 48 h, 1 μM) was 100%. The “% Cell viability” value (U937 cell line; U937, 48 h, 5 μM) was 97% and 94%, the “% Cell viability” value (U937 cell line; U937, 48 h, 10 μM) was 99% and 83% and the “% Cell viability” value (U937 cell line; U937, 72 h, 1 μM) was 98%. The “% Cell viability” value (U937 cell line; U937, 72 h, 5 μM) was 89%, the “% Cell viability” value (U937 cell line; U937, 72 h, 10 μM) was 67% and the “% Cell viability” value (Saos-2 cell line; Saos-2, 24 h, 1 μM) was 99%. For the same molecule, the “% Cell viability” value (Saos-2 cell line; Saos-2, 24 h, 5 μM) was 100%, the “% Cell viability” value (Saos-2 cell line; Saos-2, 24 h, 10 μM) was 96% and 100% and the “% Cell viability” value (Saos-2 cell line; Saos-2, 24 h, 25 μM) was 63%. For the same molecule, the “% Cell viability” value (Saos-2 cell line; Saos-2, 24 h, 50 μM) was 19%, the “% Cell viability” value (Saos-2 cell line; Saos-2, 48 h, 1 μM) was 100% and 97% and the “% Cell viability” value (Saos-2 cell line; Saos-2, 48 h, 5 μM) was 100% and 94%. For the same molecule, the “% Cell viability” value (Saos-2 cell line; Saos-2, 48 h, 10 μM) was 100% and 97%, the “% Cell viability” value (Saos-2 cell line; Saos-2, 48 h, 25 μM) was 19% and the “% Cell viability” value (Saos-2 cell line; Saos-2, 48 h, 50 μM) was 11%. The “% Cell viability” value (Saos-2 cell line; Saos-2, 72 h, 1 μM) was 89%, the “% Cell viability” value (Saos-2 cell line; Saos-2, 72 h, 5 μM) was 88% and the “% Cell viability” value (Saos-2 cell line; Saos-2, 72 h, 10 μM) was 80%. For the same molecule, the “% Cell viability” value (Saos-2 cell line; Saos-2, 72 h, 25 μM) was 8%, the inhibition at 1 µM (Caspase activity, U2-OS; 24 h) was 0% and the inhibition at 5 µM (Caspase activity, U2-OS; 24 h) was 0%. The inhibition at 1 µM (Caspase activity, U2-OS; 48 h) was 58%, the inhibition at 5 µM (Caspase activity, U2-OS; 48 h) was 54% and the inhibition at 1 µM (Caspase activity, U2-OS; 72 h) was 1%. The inhibition at 5 µM (Caspase activity, U2-OS; 72 h) was 25%.

Molecule `NC(=O)CN(CC1CCCO1)C(=O)C1CC(=O)N(CCc2ccc(Cl)cc2Cl)CC(=O)N1CCC(c1ccccc1)c1ccccc1` (centres unmarked) [I.4, 1-[2-(2,4-Dichlorophenyl)ethyl]-4-(3,3-diphenylpropyl)-3,7-dioxo[1,4]diazepane-5-carboxylic acid carbamoylmethyl(tetrahydrofuran-2-ylmethyl)amide] has an inhibition at 1 µM ([1]; U937, 24 h) of 0%, an inhibition at 1 µM ([1]; U937, 48 h) of 12% and an inhibition at 1 µM ([1]; U937, 72 h) of 0%. The inhibition at 1 µM ([2]; Saos-2, 24 h) was 55%, the inhibition at 1 µM ([2]; Saos-2, 48 h) was 9% and the inhibition at 1 µM (Caspase activity, HeLa; 24 h) was 48%. For the same molecule, the inhibition at 1 µM (Caspase activity, HeLa; 48 h) was 14%, the inhibition at 1 µM (Caspase activity, HeLa; 72 h) was 35% and the “% Cell viability” value (U937 cell line; U937, 24 h, 1 μM) was 100%. For the same molecule, the “% Cell viability” value (U937 cell line; U937, 24 h, 5 μM) was 99%, the “% Cell viability” value (U937 cell line; U937, 24 h, 10 μM) was 87% and the “% Cell viability” value (U937 cell line; U937, 48 h, 1 μM) was 99%. The “% Cell viability” value (U937 cell line; U937, 48 h, 5 μM) was 94%, the “% Cell viability” value (U937 cell line; U937, 48 h, 10 μM) was 95% and the “% Cell viability” value (Saos-2 cell line; Saos-2, 24 h, 1 μM) was 100%. For the same molecule, the “% Cell viability” value (Saos-2 cell line; Saos-2, 24 h, 5 μM) was 97%, the “% Cell viability” value (Saos-2 cell line; Saos-2, 24 h, 10 μM) was 100% and the “% Cell viability” value (Saos-2 cell line; Saos-2, 48 h, 1 μM) was 100%. The “% Cell viability” value (Saos-2 cell line; Saos-2, 48 h, 5 μM) was 98%, the “% Cell viability” value (Saos-2 cell line; Saos-2, 48 h, 10 μM) was 99% and the inhibition at 1 µM (Caspase activity, U2-OS; 24 h) was 0%. It also gave an inhibition at 1 µM (Caspase activity, U2-OS; 48 h) of 23% and an inhibition at 1 µM (Caspase activity, U2-OS; 72 h) of 54%.

In the case of `COc1ccccc1CCN(CC(N)=O)C(=O)C1CC(=O)N(CCc2ccc(Cl)cc2Cl)CC(=O)N1CCC(c1ccccc1)c1ccccc1` (centres unmarked) [I.7, 1-[2-(2,4-Dichlorophenyl)ethyl]-4-(3,3-diphenylpropyl)-3,7-dioxo[1,4]diazepane-5-carboxylic acid carbamoylmethy-[2-(2-methoxyphenyl)ethyl]amide], the “% Caspase inhibition” value ([1]; U937, 24 h) is reported as 10%, the “% Caspase inhibition” value ([1]; U937, 48 h) is reported as 8% and the “% Caspase inhibition” value ([1]; U937, 72 h) is reported as 2%. For the same molecule, the “% Caspase inhibition” value ([2]; Saos-2, 24 h) was 0%, the “% Caspase inhibition” value ([2]; Saos-2, 48 h) was 24% and the “% Caspase inhibition” value (Caspase activity, HeLa; 24 h) was 6%. The “% Caspase inhibition” value (Caspase activity, HeLa; 48 h) was 7%, the “% Caspase inhibition” value (Caspase activity, HeLa; 72 h) was 11% and the “% Cell viability” value (U937 cell line; U937, 24 h, 1 μM) was 99%. The “% Cell viability” value (U937 cell line; U937, 24 h, 5 μM) was 95%, the “% Cell viability” value (U937 cell line; U937, 24 h, 10 μM) was 93% and the “% Cell viability” value (U937 cell line; U937, 48 h, 1 μM) was 100%. For the same molecule, the “% Cell viability” value (U937 cell line; U937, 48 h, 5 μM) was 100%, the “% Cell viability” value (U937 cell line; U937, 48 h, 10 μM) was 97% and the “% Cell viability” value (Saos-2 cell line; Saos-2, 24 h, 1 μM) was 95%. The “% Cell viability” value (Saos-2 cell line; Saos-2, 24 h, 5 μM) was 99%, the “% Cell viability” value (Saos-2 cell line; Saos-2, 24 h, 10 μM) was 98% and the “% Cell viability” value (Saos-2 cell line; Saos-2, 48 h, 1 μM) was 100%. For the same molecule, the “% Cell viability” value (Saos-2 cell line; Saos-2, 48 h, 5 μM) was 100%, the “% Cell viability” value (Saos-2 cell line; Saos-2, 48 h, 10 μM) was 100% and the “% Caspase inhibition” value (Caspase activity, U2-OS; 24 h) was 0%. For the same molecule, the “% Caspase inhibition” value (Caspase activity, U2-OS; 48 h) was 31% and the “% Caspase inhibition” value (Caspase activity, U2-OS; 72 h) was 33%.

With `CC(=O)NCCNC(=O)CNC(=O)C1CC(=O)N(CCc2ccc(Cl)cc2Cl)CC(=O)N1CCC(c1ccccc1)c1ccccc1` (centres unmarked) [I.3, 1-[2-(2,4-Dichlorophenyl)ethyl]-4-(3,3-diphenylpropyl)-3,7-dioxo[1,4]diazepane-5-carboxylic acid (2-acetylaminoethyl)carbamoylmethylamide] the inhibition at 5 µM ([1]; U937, 24 h) was 12%, the inhibition at 5 µM ([1]; U937, 48 h) was 16% and the inhibition at 5 µM ([1]; U937, 72 h) was 1%. It also gave an inhibition at 5 µM (Caspase activity, HeLa; 24 h) of 9%, an inhibition at 5 µM (Caspase activity, HeLa; 48 h) of 21% and an inhibition at 5 µM (Caspase activity, HeLa; 72 h) of 29%. The “% Cell viability” value (U937 cell line; U937, 24 h, 1 μM) was 100%, the “% Cell viability” value (U937 cell line; U937, 24 h, 5 μM) was 95% and the “% Cell viability” value (U937 cell line; U937, 24 h, 10 μM) was 95%. The “% Cell viability” value (U937 cell line; U937, 48 h, 1 μM) was 100%, the “% Cell viability” value (U937 cell line; U937, 48 h, 5 μM) was 100% and the “% Cell viability” value (U937 cell line; U937, 48 h, 10 μM) was 98%. For the same molecule, the “% Cell viability” value (Saos-2 cell line; Saos-2, 24 h, 1 μM) was 97%, the “% Cell viability” value (Saos-2 cell line; Saos-2, 24 h, 5 μM) was 93% and the “% Cell viability” value (Saos-2 cell line; Saos-2, 24 h, 10 μM) was 100%. The “% Cell viability” value (Saos-2 cell line; Saos-2, 48 h, 1 μM) was 100%, the “% Cell viability” value (Saos-2 cell line; Saos-2, 48 h, 5 μM) was 100% and the “% Cell viability” value (Saos-2 cell line; Saos-2, 48 h, 10 μM) was 100%. For the same molecule, the inhibition at 5 µM (Caspase activity, U2-OS; 24 h) was 1%, the inhibition at 5 µM (Caspase activity, U2-OS; 48 h) was 29% and the inhibition at 5 µM (Caspase activity, U2-OS; 72 h) was 22%.
